Assay results taken from US20140323500A1, “NADPH OXIDASE 4 INHIBITORS AND USE THEREOF” (GENKYOTEX SA, priority 2011, published 2014).

Target: T1, human Nox4 (Homo sapiens, UniProt Q9NPH5)
T1 construct: expressed in transfected cells; host or cells: T-REx-293 (hNOX4 T-REx-293), tetracycline-induced; membrane fraction
T1 sequence (Q9NPH5 1-578): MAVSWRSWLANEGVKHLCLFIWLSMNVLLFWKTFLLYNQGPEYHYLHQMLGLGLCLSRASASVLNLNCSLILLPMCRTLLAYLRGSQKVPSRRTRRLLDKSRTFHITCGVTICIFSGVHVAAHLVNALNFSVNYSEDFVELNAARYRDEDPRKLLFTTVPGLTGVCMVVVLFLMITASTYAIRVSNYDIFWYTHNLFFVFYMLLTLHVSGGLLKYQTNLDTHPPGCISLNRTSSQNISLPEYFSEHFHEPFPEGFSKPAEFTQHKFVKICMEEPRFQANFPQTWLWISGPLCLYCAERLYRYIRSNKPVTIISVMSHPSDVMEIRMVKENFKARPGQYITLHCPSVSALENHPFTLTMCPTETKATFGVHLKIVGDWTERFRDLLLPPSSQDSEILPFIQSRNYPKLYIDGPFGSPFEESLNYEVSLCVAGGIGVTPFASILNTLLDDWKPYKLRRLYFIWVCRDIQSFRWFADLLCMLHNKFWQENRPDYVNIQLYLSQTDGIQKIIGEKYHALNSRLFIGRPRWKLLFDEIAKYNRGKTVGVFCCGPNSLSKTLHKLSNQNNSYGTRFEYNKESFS
T1 sequence (P13498 2-195 partner limits assumed): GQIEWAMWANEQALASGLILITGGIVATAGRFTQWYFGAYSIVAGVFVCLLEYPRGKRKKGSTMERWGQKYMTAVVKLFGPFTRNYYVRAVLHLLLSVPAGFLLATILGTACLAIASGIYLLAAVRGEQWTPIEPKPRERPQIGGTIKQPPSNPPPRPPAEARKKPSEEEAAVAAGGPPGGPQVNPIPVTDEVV
Test: ROS production by membranes expressing human Nox4, cell-free Amplex Red assay
Type: biochemical
Conditions: cell-free membranes, Amplex Red; Cheng-Prusoff; average of at least three experiments in triplicate; read-out: Ki hNox4
Method in brief: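 Membranes from tetracycline-induced (1 μg/ml, 24 h) T-REx cells overexpressing human Nox4, incubated in PBS with Amplex Red, HRP and co-factors; NADPH starts ROS production. Compounds 1 nM-100 μM, 20 min at 37° C.; fluorescence (ex 544/em 590 nm) over 10 min; Ki via Cheng-Prusoff, ≥3 experiments in triplicate.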

Ki: 75 nM
Compound: COc1ccc(-c2c3c(=O)n(-c4ccccc4OC)[nH]c3cc(=O)n2Cc2cccnc2)c(F)c1 [Compound (1), 4-(2-fluoro-4-methoxyphenyl)-2-(2-methoxyphenyl)-5-(pyridin-3-ylmethyl)-1H-pyrazolo[4,3-c]pyridine-3,6(2H,5H)-dione]
